Laboratory results as given in publication PMC12281475, “Mediator Kinase Inhibitor Selectivity and Activity in Colorectal Cancer” (ACS Chemical Biology, 2025).

System: COLO205 cells
Assay: Phospho-proteome profiling (CDK-motif antibody enrichment, LC-MS/MS)
Format: cell-based, human
Conditions: 6 H
Description: We phospho-proteome profiled COLO205 cells to identify Mediator kinase substrates following chemical inhibition of Mediator kinase activity. Given the confirmed CDK8/19 selectivity of our compounds in binding and enzymatic activity assays, we employed a pool of antibodies selective for the proline-rich motifs phosphorylated by the CDK family to enrich potential CDK8/19 substrates for LC-MS/MS analysis.
Adherent COLO205 cells were lysed with a urea buffer, lysates were reduced with DTT, alkylated with iodoacetimide and digested with trypsin-tosylphenylalanyl chloromethyl ketone. Digested peptides were immunoprecipitated using a pool of motif antibodies from Cell Signaling Technologies (US) comprising: phospho-MAPK substrate (PXS*P or S*PXR/K, #2325, RRID:AB_331820), phospho-CDKs substrate ((K/H)-S*P, #2324; RRID:AB_2244779), phospho-PLK binding motif (ST*P, #5243; RRID:AB_10891778) and phospho-tPE motif (T*PE, #3004; RRID:AB_10890649)-of phospho-MAPK (2325), phospho-CDK (2324), phospho-PLK (5243) and phospho-tPE (C3004) motif-recognizing antibodies immobilized onto protein A/G beads. Immunoprecipitated peptides were analyzed using an LTQ-Orbitrap-Velos. Sequences were assigned to the MS/MS spectra and evaluated using SEQUEST 3G and SORCERER 2 (Sage-N Research v4.0, Milpitas). Quantitative data was evaluated and clustered in Spotfire Decision Site (www.spotfire.tibco.com) and normalized using quartile normalization. Functional annotation and pathway analysis used DAVID (https://david.ncifcrf.gov/). […]
Phospho-proteome analyses
Adherent COLO205 cells were washed with PBS and cells lysed using urea lysis buffer (9 M Urea, 20 mM HEPES, pH 8.0, 1 mM beta-glycerophosphate, 1 mM sodium vanadate, 2.5 mM sodium pyrophosphate) and stored at -80 °C prior to analysis. The supernatants were reduced with 100 mM DTT for 30 minutes at 55 °C, followed by alkylation with 50 mM iodoacetimide for 15 minutes at ambient temperature in the dark.
The samples were diluted in 20 mM HEPES, pH 8.0 and digested overnight with 10 ug/mL trypsin-tosylphenylalanyl chloromethyl ketone in 1 mM HCl. Digested peptides were acidified with 1% formic acid and then desalted over 360-mg SEP PAK C18 columns (Waters, UK). Peptides were eluted with 40% acetonitrile in 0.125% formic acid, dried under a vacuum and the lyophilised peptides used for immunoprecipitation.
A pool of motif antibodies from Cell Signaling Technologies (US) comprising: phospho-MAPK substrate (PXS*P or S*PXR/K, #2325, RRID:AB_331820), phospho-CDKs substrate ((K/H)S*P, #2324; RRID:AB_2244779), phospho-PLK binding motif (ST*P, […]
RRID:AB_10890649), were immobilised onto protein A/G beads overnight at 4 °C. The lyophilised peptides were resuspended in MOPS buffer (50 mM MOPS, pH 7.2, 10 mM KH2PO4, 50 mM NaCl) and centrifuged for 5 mins at 13,500 rpm in an Eppendorf benchtop microcentrifuge. The supernatants were incubated with the motif-bound beads for 2.5 hours at 4 °C . The beads were harvested by centrifugation at 4000 rpm in an Eppendorf benchtop microcentrifuge for 5 mins, washed with MOPS buffer twice and washed again 5 times with deionised water. The peptides were eluted off the beads using 0.125% formic acid, were desalted and dried under a vacuum. The lyophilised immunoprecipitated peptides were resuspended in 0.125% formic acid and separated on a capillary column packed with Magic C18 AQ reversed-phase resin.
Peptides were eluted using a 72-minute linear gradient of acetonitrile in 0.125% formic acid delivered at 280nL/min. Samples were analysed using an LTQ-Orbitrap-Velos.
MS Parameter Settings were: MS Run Time 96 min, MS1 Scan Range (300.0 – 1500.00), Top 20 MS/MS (Min Signal 500, Isolation Width 2.0, Normalized Coll.
Charge State Rejection Enabled, Charge State 1+ Rejected, Dynamic Exclusion Enabled, Repeat Count 1, Repeat Duration 35.0, Exclusion List Size 500, Exclusion Duration 40.0, Exclusion Mass Width Relative to Mass, Exclusion Mass Width 10ppm). […]

[1] = MCM4 peptide 69 - fsSppqmhssaipldfdvSspltygtpssr - 98
[2] = MCM4 peptide 86 - vsSpltygtpssr - 98
[3] = MDC1 peptide 1645 - SSvkTpkpvepaaSdlepftptdqsvTpeaiaqggqsk - 1682
[4] = MDC1 peptide 1649 - tpkpvepaasdlepfTptdqsvTpeaiaqggqsk - 1682
[5] = MED13 peptide 551 - TpStpqsqhfyqmpTpdplvpskpmedr - 578
[6] = MED13 peptide 551 - tpstpqSqhfyqmpTpdplvpskpmedr - 578
[7] = MED14 peptide 1106 - agnwpgSpqvsgpSpaar - 1123
[8] = MED26 peptide 295 - gSvpSpSprpqaldatqvpSplplaqpsTppvr - 328
[9] = MED26 peptide 295 - gsvpSpsprpqaldatqvpSplplaqpStppvrr - 328
[10] = MED26 peptide 295 - gsvpspsprpqaldatqvpSplplaqpStppvrr -328
[11] = MED26 peptide 295 - gsvpspsprpqaldatqvpSplplaqpsTppvr - 328
[12] = MLLT6 peptide 446 - palsatpvpadeTpetglkek - 466
[13] = NDRG3 peptide 327 - srthstSSSlgsgeSpfsr - 345
[14] = NEDD4L peptide 549 - avkdTlSnpqSpqpSpYnSpkpqhk - 593
[15] = NOP2 peptide 173 - eaaagiqwSeeeTedeeeekevTpesgppk - 202
[16] = NOSIP peptide 158 - vlpsfwipslTpeak - 172
[17] = NRIP1 peptide 537 - tsviespstnrtTpvSTpplltssk - 561
[18] = PBK peptide 18 - ksvlcstpTinipaSpfmqk - 37
[19] = PBK peptide 19 - svlcStptinipaSpfmqk - 37
[20] = PBK peptide 19 - svlcsTpTinipaspfmqk - 37
[21] = PDE12 peptide 200 - eakpgaaepevgvpsslspSSpSsswtetdveer - 233
[22] = PLEC peptide 4274/4384 - SSsvgsSssypiSpavsr - 4291/4401
[23] = PLEKHA6 peptide 453 - shsvprspSqgsysr - 467
[24] = PPP1R18 peptide 192 - wrlSpgeTper - 202
[25] = PRC1 peptide 487/447 - klntttmsnatanssirpifggtvyhSpvsr - 517/477
[26] = RACGAP1 peptide 572 - vsllgpvTTpehqllkTpSSSSlsqr - 597
[27] = RB1 peptide 788 - spykfpsSplripggniYisplkSpykiseglptptk - 824
[28] = RB1 peptide 792 - fpSSplripggniyiSplkSpYkiseglptpTk - 824
[29] = SEMA6A peptide 745 - adqhhldltalpTpestptlqqk - 767
[30] = SH3RF1 peptide 682 - ivtvlpglpTSpdsassacgnssatkpdkdsk - 713
[31] = SPEN peptide 188 - SrSpnrfdahdpr - 200
[32] = STAT1 peptide 716 - lqttdnllpmsSpeefdevsr - 736
[33] = TACC2 peptide 8/2304 - mkkTpekldntpaSpprSpaepndipiak - 36/2332
[34] = TANC2 peptide 1556 - sqSgspvryqqetsvsqlpgrpksplsSk - 1583
[35] = TASOR peptide 969 - qrSSdYqfpSSpftdtlk - 986
[36] = TASOR peptide 971- ssdyqfpSspftdtlk - 986
[37] = TASOR peptide 971 - ssdyqfpsSpftdtlk - 986
[38] = TBC1D10B peptide 686 - asagpapgpvvtaeglhpslpSptgnsTplgssk - 718
[39] = TBC1D23 peptide 505- visfientsTpvdr - 518
[40] = TFEB peptide 406 - edegppgypeplapghgSpfpslsk - 430
[41] = TGS1 peptide 290 - vdlvsfpsSpimvdndssgtsdkdhseildgisnik - 325
[42] = TLE3 peptide 282 - daptspasvassssTpssk - 300
[43] = TMPO peptide 151 - eqgteSrssTplptisssaentr - 173
[44] = TNRC18 peptide 1230 - vdSpgrTepcTaaldlgvqlTpeTlveak -1258
[45] = TUT1 peptide 273 - apespSldsalaSpldpqa - 293l
[46] = UBR5 peptide 634 - rsTpapkeeekvneeqwslr -653
[47] = WAC peptide 455 - iStpqtntvpikplisTppvsSqpk - 479
[48] = ZC3H13 peptide 1206 - lrSpSndsahr - 1216
[49] = ZMYM4 peptide 1085 - dqgstysgdleseavStphsweeelnhyalk -1115
[50] = ZMYND8 peptide 278/423 - rislsdmprSpmstnssvhtgsdveqdaekk - 307/452
[51] = ZNF687 peptide 123 - mqngfgSpepslpgtphSpappSggtwk - 150

SMILES: Cn1cc(-c2ccc(-c3cncc(Cl)c3N3CCC4(CCNC4=O)CC3)cc2)cn1 [CCT251545]
- MEAN MS SIGNAL CMPD 1 6 H (MCM4 peptide 69 - fSsppqmhssaipldfdvSsplTygtpssr - 98): 71644
- CMPD 1/DMSO [1]: 0.313
- MEAN MS SIGNAL CMPD 1 6 H [1]: 16633
- CMPD 1/DMSO [2]: 0.545
- MEAN MS SIGNAL CMPD 1 6 H [2]: 23881
- CMPD 1/DMSO [3]: 0.574
- MEAN MS SIGNAL CMPD 1 6 H [3]: 46837
- CMPD 1/DMSO [4]: 0.539
- MEAN MS SIGNAL CMPD 1 6 H [4]: 44678
- CMPD 1/DMSO [5]: 0.359
- MEAN MS SIGNAL CMPD 1 6 H [5]: 9156
- CMPD 1/DMSO [6]: 0.429
- MEAN MS SIGNAL CMPD 1 6 H [6]: 13284
- CMPD 1/DMSO [7]: 0.142
- MEAN MS SIGNAL CMPD 1 6 H [7]: 17584
- CMPD 1/DMSO [8]: 0.215
- MEAN MS SIGNAL CMPD 1 6 H [8]: 56284
- CMPD 1/DMSO [9]: 0.344
- MEAN MS SIGNAL CMPD 1 6 H [9]: 14569
- CMPD 1/DMSO [10]: 0.404
- MEAN MS SIGNAL CMPD 1 6 H [10]: 11273
- CMPD 1/DMSO [11]: 0.324
- MEAN MS SIGNAL CMPD 1 6 H [11]: 51395
- CMPD 1/DMSO [12]: 0.499
- MEAN MS SIGNAL CMPD 1 6 H [12]: 13974
- CMPD 1/DMSO [13]: 0.635
- MEAN MS SIGNAL CMPD 1 6 H [13]: 12713
- CMPD 1/DMSO [14]: 2.036
- MEAN MS SIGNAL CMPD 1 6 H [14]: 126084
- CMPD 1/DMSO [15]: 0.618
- MEAN MS SIGNAL CMPD 1 6 H [15]: 97741
- CMPD 1/DMSO [16]: 0.562
- MEAN MS SIGNAL CMPD 1 6 H [16]: 425932
- CMPD 1/DMSO [17]: 1.857
- MEAN MS SIGNAL CMPD 1 6 H [17]: 157739
- CMPD 1/DMSO [18]: 0.492
- MEAN MS SIGNAL CMPD 1 6 H [18]: 411168
- CMPD 1/DMSO [19]: 0.553
- MEAN MS SIGNAL CMPD 1 6 H [19]: 167495
- CMPD 1/DMSO [20]: 0.535
- MEAN MS SIGNAL CMPD 1 6 H [20]: 63854
- CMPD 1/DMSO [21]: 0.255
- MEAN MS SIGNAL CMPD 1 6 H [21]: 32966
- CMPD 1/DMSO [22]: 0.605
- MEAN MS SIGNAL CMPD 1 6 H [22]: 787072
- CMPD 1/DMSO [23]: 1.818
- MEAN MS SIGNAL CMPD 1 6 H [23]: 361701
- CMPD 1/DMSO [24]: 0.562
- MEAN MS SIGNAL CMPD 1 6 H [24]: 109529
- CMPD 1/DMSO [25]: 0.592
- MEAN MS SIGNAL CMPD 1 6 H [25]: 508312
- CMPD 1/DMSO [26]: 0.557
- MEAN MS SIGNAL CMPD 1 6 H [26]: 38518
- CMPD 1/DMSO [27]: 1.786
- MEAN MS SIGNAL CMPD 1 6 H [27]: 21423
- CMPD 1/DMSO [28]: 1.780
- MEAN MS SIGNAL CMPD 1 6 H [28]: 52675
- CMPD 1/DMSO [29]: 2.360
- MEAN MS SIGNAL CMPD 1 6 H [29]: 62365
- CMPD 1/DMSO [30]: 0.610
- MEAN MS SIGNAL CMPD 1 6 H [30]: 121720
- CMPD 1/DMSO [31]: 2.092
- MEAN MS SIGNAL CMPD 1 6 H [31]: 88908
- CMPD 1/DMSO [32]: 0.357
- MEAN MS SIGNAL CMPD 1 6 H [32]: 223699
- CMPD 1/DMSO [33]: 0.521
- MEAN MS SIGNAL CMPD 1 6 H [33]: 16068
- CMPD 1/DMSO [34]: 3.615
- MEAN MS SIGNAL CMPD 1 6 H [34]: 175022
- CMPD 1/DMSO [35]: 0.437
- MEAN MS SIGNAL CMPD 1 6 H [35]: 47745
- CMPD 1/DMSO [36]: 0.316
- MEAN MS SIGNAL CMPD 1 6 H [36]: 116521
- CMPD 1/DMSO [37]: 0.406
- MEAN MS SIGNAL CMPD 1 6 H [37]: 489288
- CMPD 1/DMSO [38]: 0.515
- MEAN MS SIGNAL CMPD 1 6 H [38]: 63051
- CMPD 1/DMSO [39]: 0.544
- MEAN MS SIGNAL CMPD 1 6 H [39]: 230940
- CMPD 1/DMSO [40]: 0.596
- MEAN MS SIGNAL CMPD 1 6 H [40]: 1352019
- CMPD 1/DMSO [41]: 0.563
- MEAN MS SIGNAL CMPD 1 6 H [41]: 156101
- CMPD 1/DMSO [42]: 2.152
- MEAN MS SIGNAL CMPD 1 6 H [42]: 35775
- CMPD 1/DMSO [43]: 2.220
- MEAN MS SIGNAL CMPD 1 6 H [43]: 19216
- CMPD 1/DMSO [44]: 0.311
- MEAN MS SIGNAL CMPD 1 6 H [44]: 69822
- CMPD 1/DMSO [45]: 2.097
- MEAN MS SIGNAL CMPD 1 6 H [45]: 41046
- CMPD 1/DMSO [46]: 0.456
- MEAN MS SIGNAL CMPD 1 6 H [46]: 139720
- CMPD 1/DMSO [47]: 0.617
- MEAN MS SIGNAL CMPD 1 6 H [47]: 154581
- CMPD 1/DMSO [48]: 1.804
- MEAN MS SIGNAL CMPD 1 6 H [48]: 405976
- CMPD 1/DMSO [49]: 0.475
- MEAN MS SIGNAL CMPD 1 6 H [49]: 46592
- CMPD 1/DMSO [50]: 0.617
- MEAN MS SIGNAL CMPD 1 6 H [50]: 23551
- CMPD 1/DMSO [51]: 0.458
- MEAN MS SIGNAL CMPD 1 6 H [51]: 22069
